Series [1] in a line: Mouse liver microsome (MLM) stability. In kind it is in vitro ADME. The following applies: microsomal stability in mouse liver microsomes (MLM). (In general: Microsomes from liver hold many membrane-bound enzymes, among them those of drug oxidation.)
Protocol: A first pharmacokinetic study was performed in microsomes of mice mouse liver microsomes, MLM).
Microsomal stability experiments and plasma stability experiments were performed to determine metabolic and hepatic stability of candidate compounds.
Series [2] can be described thus: log P. It counts as physicochemical. In short, it runs like this:
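Ratio of un-ionized compound concentrations between octanol and water, with aqueous pH set so the un-ionized form predominates. Value given as the log of the octanol/water ratio.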

Series [3] addresses potassium channel hERG (Homo sapiens (Human), UniProt Q12809). In words: In vitro testing for hERG inhibition. In kind it is biochemical. The following applies: in vitro toxicity potassium channel hERG. As for the experimental part:
In vitro testing for hERG inhibition was performed in a standard assay (See: Haverkamp W, Breithardt G, Carnm A J, Janse M J, Rosen M R, Antzelevitch C, Escande D, Franz M, Malik M, Moss A and Shah R. (2000) Eur Heat J 21 (15); 1216-31).
(Block of hERG is tested as a sign of cardiac risk.)

Series [4] has as its target Sigma-1 receptors on Jurkat cell membranes (Homo sapiens (Human), UniProt Q99720). In words: Competitive Radioligand Binding Assay 1, Sigma-1 binding ([3H](+)pentazocine displacement). The settings on record: sigma-1 receptor affinity; read-out: S1 Ki.
Series [5] concerns the target Sigma-2 receptors on membranes from rat cerebral cortex (Rattus norvegicus (Rat), UniProt Q5U3Y7). In words: Competitive Radioligand Binding Assay 1, Sigma-2 binding ([3H]DTG displacement with (+)pentazocine mask). The settings on record: sigma-2 receptor affinity; read-out: S2 Ki. In short, it runs like this: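 Displacement of [3H]DTG by test compounds from rat cerebral cortex membranes in presence of 300 nM (+)pentazocine masking sigma-1 sites; 10 μM haloperidol defines non-specific binding. Filtration and scintillation counting; Ki from displacement curves.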

Series [6] concerns Abeta oligomer-induced membrane trafficking deficits in primary hippocampal neurons. Nature of the series: Membrane Trafficking/Exocytosis (MTT) assay, Abeta oligomer effect on neurons.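 Further: compound potency for inhibiting the Abeta oligomer effect on exocytosis.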 In kind it is cell-based, rat. The following applies: membrane trafficking, read-out: EC50 Abeta. The essentials:
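Rat E18 hippocampal neurons cultured 3 weeks received compound (100 uM to 0.001 nM), then vehicle or Abeta 1-42 oligomers (3 μM total Abeta), for 1-24 h at 37 °C. MTT was added for 1 h, and formazan vesicle exocytosis was quantified by automated imaging with DAPI toxicity check. Tukey-Kramer comparisons were made with N=4.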

Like-named read-outs stand apart in the source and are kept apart here.

Chain of Sigma-2 receptors on membranes from rat cerebral cortex (Q5U3Y7 whole entry): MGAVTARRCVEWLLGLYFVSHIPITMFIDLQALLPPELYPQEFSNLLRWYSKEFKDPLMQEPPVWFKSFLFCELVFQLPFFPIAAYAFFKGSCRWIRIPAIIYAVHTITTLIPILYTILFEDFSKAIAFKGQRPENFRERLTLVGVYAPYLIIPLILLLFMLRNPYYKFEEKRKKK
Chain of Sigma-1 receptors on Jurkat cell membranes (Q99720 whole entry): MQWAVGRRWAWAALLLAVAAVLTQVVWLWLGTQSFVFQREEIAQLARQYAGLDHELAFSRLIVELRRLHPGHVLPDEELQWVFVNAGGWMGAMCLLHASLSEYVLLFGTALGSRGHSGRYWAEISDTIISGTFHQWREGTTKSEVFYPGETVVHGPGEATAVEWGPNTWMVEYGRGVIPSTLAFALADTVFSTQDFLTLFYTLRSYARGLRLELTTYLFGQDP
Chain of potassium channel hERG (Q12809 whole entry): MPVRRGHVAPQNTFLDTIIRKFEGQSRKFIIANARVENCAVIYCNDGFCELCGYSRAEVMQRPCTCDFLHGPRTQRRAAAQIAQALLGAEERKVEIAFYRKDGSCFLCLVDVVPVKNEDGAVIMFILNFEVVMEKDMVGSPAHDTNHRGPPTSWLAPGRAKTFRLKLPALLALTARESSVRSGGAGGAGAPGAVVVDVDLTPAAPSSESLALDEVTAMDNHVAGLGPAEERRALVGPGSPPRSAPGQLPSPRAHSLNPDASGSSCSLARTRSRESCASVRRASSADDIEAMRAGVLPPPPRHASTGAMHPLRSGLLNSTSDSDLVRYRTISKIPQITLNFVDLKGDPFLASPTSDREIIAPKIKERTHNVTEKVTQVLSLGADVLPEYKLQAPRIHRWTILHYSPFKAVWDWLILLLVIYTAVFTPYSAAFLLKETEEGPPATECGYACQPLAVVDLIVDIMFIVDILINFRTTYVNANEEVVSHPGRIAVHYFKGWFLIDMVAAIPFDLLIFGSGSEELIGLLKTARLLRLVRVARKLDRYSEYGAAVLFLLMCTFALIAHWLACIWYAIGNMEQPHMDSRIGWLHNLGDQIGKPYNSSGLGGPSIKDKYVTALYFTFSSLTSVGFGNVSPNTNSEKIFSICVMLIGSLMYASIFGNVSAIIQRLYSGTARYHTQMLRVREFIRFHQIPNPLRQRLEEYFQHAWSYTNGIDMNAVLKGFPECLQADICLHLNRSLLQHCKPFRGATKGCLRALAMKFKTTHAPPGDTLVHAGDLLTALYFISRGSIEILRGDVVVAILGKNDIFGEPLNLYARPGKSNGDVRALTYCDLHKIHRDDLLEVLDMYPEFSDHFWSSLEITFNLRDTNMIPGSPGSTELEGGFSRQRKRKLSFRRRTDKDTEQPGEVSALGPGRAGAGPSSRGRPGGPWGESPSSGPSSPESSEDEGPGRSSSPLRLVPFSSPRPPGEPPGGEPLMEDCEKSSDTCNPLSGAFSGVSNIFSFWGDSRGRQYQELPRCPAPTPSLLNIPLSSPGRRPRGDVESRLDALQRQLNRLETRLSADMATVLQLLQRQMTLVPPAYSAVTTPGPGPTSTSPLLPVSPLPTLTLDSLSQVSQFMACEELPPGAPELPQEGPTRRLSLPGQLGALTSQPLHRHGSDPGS

Regarding `CC(C)=CC(CC(C)(C)c1ccc(Cl)cc1)N1CCC(O)CC1` (stereo not drawn) [Compound 77], the “MLM T1/2” value in series [1] came out at 44 min. In series [2], the “log P” value came to 4.58. In series [3], this molecule displayed an IC50 of 15.2 µM. Besides, the Ki in series [4] was determined as 0.54 µM; in series [5], 0.8 µM. For the same molecule, the concentration for a half-maximal effect (EC50) in series [6] stood at 20 µM.

In the case of `CC(C)=CC(CC(C)(C)c1ccc(C(F)(F)F)cc1)N1CCC(CO)CC1` (stereo not drawn) [Compound 35], the “MLM T1/2” value in series [1] is 60 min. In addition, the “log P” value in series [2] turned out to be 5.31. The concentration for half-maximal inhibition (IC50) in series [3] was 13.4 µM. For the same molecule, the Ki was determined as 0.056 µM in series [4] and 0.039 µM in series [5]. In addition, in series [6], the EC50 was 20 µM.

Take `CC(C)=CC(CCc1ccc(F)cc1)N1CCC(C2CCOCC2)CC1` (stereo not drawn) [Compound 21]: the “MLM T1/2” value in series [1] came to 11 min. Moreover, in series [2], the “log P” value turned out to be 5.26. The molecule further showed an IC50 in series [3] of 0.83 µM. Besides, the Ki in series [4] was determined as 0.008 µM; in series [5], 0.0062 µM. Also, the EC50 in series [6] stood at 20 µM.

For `CC(C)=CC(CC(C)(C)c1ccc(C(F)(F)F)cc1)N1CCC(C(F)(F)F)CC1` (stereo not drawn) [Compound 70], the “MLM T1/2” value in series [1] is 14 min. In series [2], the “log P” value is recorded as 6.95. This molecule came in with an IC50 in series [3] of 16.3 µM. In addition, the inhibition constant (Ki) in series [4] stood at 0.033 µM; in series [5], 0.34 µM. Moreover, in series [6], the half-maximal effective concentration (EC50) was 20 µM.

In the case of `CC(C)=CC(CC(C)(C)c1ccc(F)cc1)N1CCC2(CCOCC2)CC1` (stereo not drawn) [Compound 36], in series [1], the “MLM T1/2” value came out at 25 min. Also, the “log P” value in series [2] is 5.41. In series [3], this molecule displayed a 50% inhibitory concentration (IC50) of 10 µM. Besides, the Ki in series [4] was found to be 0.012 µM; in series [5], 0.04 µM. Also, the EC50 in series [6] stood at 20 µM.

For `CC(C)=CC(CC(C)(C)c1ccc(Cl)cc1)N1CCC(CCO)CC1` (stereo not drawn) [Compound 53], in series [1], the “MLM T1/2” value came to 28 min. In series [2], the “log P” value was 5.41. This molecule displayed an IC50 in series [3] of 13.3 µM. Moreover, the inhibition constant Ki is 0.074 µM in series [4] and 0.11 µM in series [5]. For the same molecule, the EC50 in series [6] was found to be 20 µM.

In the case of `CC(C)=CC(CC(C)(C)c1ccc(F)cc1)N1CCC(O)CC1` (stereo not drawn) [Compound 79], the “MLM T1/2” value in series [1] amounted to 74 min. In addition, the “log P” value in series [2] was found to be 4.12. In series [3], this molecule had an IC50 of 29 µM. Also, the values for the Ki in series [4] and in series [5] were 1.2 µM and 0.94 µM, respectively. For the same molecule, the EC50 in series [6] was 1.9 µM.

Regarding `CC(C)=CC(CC(C)(C)c1ccc(C(F)(F)F)cc1)N1CCC(C2CCOCC2)CC1` (stereo not drawn) [Example 9], the half-life in series [1] (read-out: MLM T1/2) turned out to be 114 min. In series [2] (octanol/water), this molecule displayed a logP of 6.58. This molecule also had a 50% inhibitory concentration (IC50) in series [3] of 1 µM. Further, the Ki in series [4] came to 0.013 µM; in series [5], 0.0018 µM. Moreover, the EC50 in series [6] (Rattus norvegicus, Hippocampal neuron) was found to be 0.5 µM.

Consider `CC(C)=CC(CC(C)(C)c1ccc(F)cc1)N1CCC(C)(O)CC1` (stereo not drawn) [Compound 62], for which the “MLM T1/2” value in series [1] turned out to be 60 min. For the same molecule, the log partition coefficient (log P) in series [2] is listed as 4.4. For the same molecule, in series [3], inhibition was half-maximal at 41 µM (IC50). Moreover, the Ki was found to be 0.13 µM in series [4] and 0.23 µM in series [5]. Moreover, the EC50 in series [6] came to 0.8 µM.

Regarding `CC(C)=CC(CC(C)(C)c1ccc(F)cc1)N1CCC(CCO)CC1` (stereo not drawn) [Compound 58], the “MLM T1/2” value in series [1] was found to be 39 min. Also, the “log P” value in series [2] is 4.94. Also, the midpoint of inhibition in series [3], the IC50, lay at 14 µM. Also, the inhibitory constant (Ki) was 0.064 µM in series [4] and 0.16 µM in series [5]. The half-maximal effective concentration (EC50) in series [6] came out at 0.5 µM.

As to `CC(C)=CC(CC(C)(C)c1ccc(Cl)cc1)N1CCC(F)CC1` (stereo not drawn) [Compound 55], in series [1], the “MLM T1/2” value came out at 3.6 min. For the same molecule, in series [2], the “log P” value stood at 5.47. Half-maximal inhibition in series [3] (IC50) was put at 7.2 µM. For the same molecule, the Ki in series [4] stood at 0.025 µM; in series [5] it was 0.12 µM. In addition, the EC50 in series [6] stood at 2.5 µM.

Consider `CC(C)=CC(CC(C)(C)c1ccc(C(F)(F)F)cc1)N1CCCCC1` (stereo not drawn) [Compound 61], for which the “MLM T1/2” value in series [1] was 53 min. Also, the “log P” value in series [2] is 6.38. Moreover, half-maximal inhibition in series [3] (IC50) was put at 7.3 µM. For the same molecule, the results for the Ki in series [4] and in series [5] were 0.16 µM and 0.23 µM, respectively. In addition, the concentration for a half-maximal effect (EC50) in series [6] came to 4.7 µM.

For the molecule `COCCCC1CCN(C(C=C(C)C)CC(C)(C)c2ccc(Cl)cc2)CC1` (stereo not drawn) [Compound 23], the “MLM T1/2” value in series [1] was 8.2 min. For the same molecule, the “log P” value in series [2] worked out at 6.49. Also, in series [3], the IC50 was determined as 2.2 µM. The Ki was 0.14 µM in series [4] and 0.0092 µM in series [5]. In series [6], the EC50 is 0.95 µM.

As to `CC(C)=CC(CC(C)(C)c1ccc(F)cc1)N1CCCCC1` (stereo not drawn) [Compound 68], in series [1], the “MLM T1/2” value came to 11 min. In series [2], the “log P” value turned out to be 5.65. Further, the IC50 in series [3] turned out to be 27 µM. Further, the Ki in series [4] was 0.5 µM; in series [5] it was 0.3 µM. Moreover, the half-maximal effective concentration (EC50) in series [6] was determined as 20 µM.

The log P is the decadic logarithm of the partition coefficient of the neutral form, usually between octanol and water. Higher therefore signals higher lipophilicity. In general, IC50 refers to the point on the concentration scale where inhibition reaches its midpoint. The low end stands for inhibition by little substance, the high end for a need for much substance. In general, Ki refers to the equilibrium dissociation constant of an inhibitor or competing ligand from its target. As usually defined, the EC50 is the concentration at which the effect is half-maximal. What is called logP is a log measure of how a compound divides between an organic and an aqueous phase. A lower logP goes with lower lipophilicity.

Values taken from patent US11214540B2, “Compositions for treating neurodegenerative diseases” (COGNITION THERAPEUTICS, INC., priority 2017, dated 2022).
